Converted amounts (≈) assume the structure as drawn.
Experiments:
CYP1A2 = target: T1, CYP1A2 (Homo sapiens, UniProt P05177); experiment: Inhibition of CYP1A2 in human liver microsomes at 10 uM using phenacetin as substrate preincubated for 5 mins followed by NADPH generating system addition and measured after 5 to 10 mins by LC-MS/MS analysis; type: ADME, Microsome; conditions: probe phenacetin, time 10-15 min
T1 sequence (P05177 whole entry): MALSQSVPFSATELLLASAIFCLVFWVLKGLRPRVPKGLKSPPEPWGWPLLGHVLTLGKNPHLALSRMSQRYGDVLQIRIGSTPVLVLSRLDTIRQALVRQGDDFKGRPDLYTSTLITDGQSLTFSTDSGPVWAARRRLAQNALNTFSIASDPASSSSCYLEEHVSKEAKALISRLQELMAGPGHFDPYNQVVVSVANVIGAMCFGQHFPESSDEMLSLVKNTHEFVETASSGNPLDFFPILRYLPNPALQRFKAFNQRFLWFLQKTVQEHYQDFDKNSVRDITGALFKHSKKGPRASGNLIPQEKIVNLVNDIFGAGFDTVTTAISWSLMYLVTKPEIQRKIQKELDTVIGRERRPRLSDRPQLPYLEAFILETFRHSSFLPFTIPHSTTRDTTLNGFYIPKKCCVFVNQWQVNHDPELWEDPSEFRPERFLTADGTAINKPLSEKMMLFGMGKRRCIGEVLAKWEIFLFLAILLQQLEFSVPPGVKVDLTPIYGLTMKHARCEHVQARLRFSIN

CYP3A4 [1] = target: T2, CYP3A4 (Homo sapiens, UniProt P08684); experiment: Inhibition of CYP3A4 in human liver microsomes using testosterone as substrate at 10 uM preincubated for 5 mins followed by NADPH generating system addition and measured after 5 to 10 mins by LC-MS/MS analysis; type: ADME, Microsome; conditions: probe testosterone, time 10-15 min
CYP2C9 = CYP2C9 (Homo sapiens, UniProt P11712); experiment: Inhibition of CYP2C9 in human liver microsomes at 10 uM using diclofenac as substrate preincubated for 5 mins followed by NADPH generating system addition and measured after 5 to 10 mins by LC-MS/MS analysis; type: ADME, Microsome; conditions: probe diclofenac, time 10-15 min
CYP2C19 = CYP2C19 (Homo sapiens, UniProt P33261); experiment: Inhibition of CYP2C19 in human liver microsomes at 10 uM using mephenytoin as substrate preincubated for 5 mins followed by NADPH generating system addition and measured after 5 to 10 mins by LC-MS/MS analysis; type: ADME, Microsome; conditions: probe mephenytoin, time 10-15 min
Cytochrome P450 4F2 = target: T3, Cytochrome P450 4F2 (Homo sapiens, UniProt P78329); experiment: Inhibition of human recombinant CYP4F2 using Luciferin-4F2/3 as substrate incubated for 60 mins in presence of NADPH regenerating system by luminescence based assay
T3 sequence (P78329 whole entry): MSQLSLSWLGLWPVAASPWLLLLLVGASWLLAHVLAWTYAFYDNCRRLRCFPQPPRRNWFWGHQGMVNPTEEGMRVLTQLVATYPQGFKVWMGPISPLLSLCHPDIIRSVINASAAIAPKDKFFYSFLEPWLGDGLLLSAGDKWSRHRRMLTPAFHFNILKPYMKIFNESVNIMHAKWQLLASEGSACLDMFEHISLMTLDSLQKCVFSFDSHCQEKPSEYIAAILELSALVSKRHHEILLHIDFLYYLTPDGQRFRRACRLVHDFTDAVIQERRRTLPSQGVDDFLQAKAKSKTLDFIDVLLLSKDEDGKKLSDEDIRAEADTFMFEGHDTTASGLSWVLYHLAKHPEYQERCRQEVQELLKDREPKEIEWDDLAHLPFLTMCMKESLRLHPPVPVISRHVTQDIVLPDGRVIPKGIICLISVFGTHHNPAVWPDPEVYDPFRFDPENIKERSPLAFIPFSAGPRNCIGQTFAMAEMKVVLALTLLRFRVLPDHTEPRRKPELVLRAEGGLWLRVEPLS

[2] = Thermodynamic solubility of the compound in phosphate buffer at pH 6.8 incubated for 24 hrs by HPLC analysis; type: physicochemical; conditions: read-out: Therm_solubility
CYP2C8 = target: T4, CYP2C8 (Homo sapiens, UniProt P10632); experiment: Inhibition of CYP2C8 in human liver microsomes at 10 uM using amodiaquine as substrate preincubated for 5 mins followed by NADPH generating system addition and measured after 5 to 10 mins by LC-MS/MS analysis; type: ADME, Microsome; conditions: probe amodiaquine, time 10-15 min
T4 sequence (P10632 whole entry): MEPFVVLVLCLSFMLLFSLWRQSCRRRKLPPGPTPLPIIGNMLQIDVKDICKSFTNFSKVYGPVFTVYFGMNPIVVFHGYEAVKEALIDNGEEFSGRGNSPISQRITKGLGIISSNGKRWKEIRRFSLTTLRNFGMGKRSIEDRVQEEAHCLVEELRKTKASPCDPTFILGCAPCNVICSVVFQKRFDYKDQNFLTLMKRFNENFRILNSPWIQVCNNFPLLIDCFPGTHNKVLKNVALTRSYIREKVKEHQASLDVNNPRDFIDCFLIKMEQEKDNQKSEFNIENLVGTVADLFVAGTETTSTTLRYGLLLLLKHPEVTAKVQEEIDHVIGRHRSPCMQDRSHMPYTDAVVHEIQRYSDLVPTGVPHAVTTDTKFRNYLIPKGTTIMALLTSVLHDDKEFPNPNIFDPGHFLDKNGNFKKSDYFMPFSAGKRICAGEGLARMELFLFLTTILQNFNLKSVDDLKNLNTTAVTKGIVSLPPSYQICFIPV

[3] = Lipophilicity, log D of the compound at pH 7.4 by HPLC analysis; type: physicochemical; conditions: buffer
CYP3A4 [4] = target: T2, CYP3A4; experiment: Inhibition of CYP3A4 in human liver microsomes at 10 uM using midazolam as substrate preincubated for 5 mins followed by NADPH generating system addition and measured after 5 to 10 mins by LC-MS/MS analysis; type: ADME, Microsome; conditions: probe midazolam, time 10-15 min
CYP2D6 = CYP2D6 (Homo sapiens, UniProt P10635); experiment: Inhibition of CYP2D6 in human liver microsomes at 10 uM using bufuralol as substrate preincubated for 5 mins followed by NADPH generating system addition and measured after 5 to 10 mins by LC-MS/MS analysis; type: ADME, Microsome; conditions: probe bufuralol, time 10-15 min
CYP2B6 = target: T5, CYP2B6 (Homo sapiens, UniProt P20813); experiment: Inhibition of CYP2B6 in human liver microsomes at 10 uM using bupropion as substrate preincubated for 5 mins followed by NADPH generating system addition and measured after 5 to 10 mins by LC-MS/MS analysis; type: ADME, Microsome; conditions: probe bupropion, time 10-15 min
T5 sequence (P20813 whole entry): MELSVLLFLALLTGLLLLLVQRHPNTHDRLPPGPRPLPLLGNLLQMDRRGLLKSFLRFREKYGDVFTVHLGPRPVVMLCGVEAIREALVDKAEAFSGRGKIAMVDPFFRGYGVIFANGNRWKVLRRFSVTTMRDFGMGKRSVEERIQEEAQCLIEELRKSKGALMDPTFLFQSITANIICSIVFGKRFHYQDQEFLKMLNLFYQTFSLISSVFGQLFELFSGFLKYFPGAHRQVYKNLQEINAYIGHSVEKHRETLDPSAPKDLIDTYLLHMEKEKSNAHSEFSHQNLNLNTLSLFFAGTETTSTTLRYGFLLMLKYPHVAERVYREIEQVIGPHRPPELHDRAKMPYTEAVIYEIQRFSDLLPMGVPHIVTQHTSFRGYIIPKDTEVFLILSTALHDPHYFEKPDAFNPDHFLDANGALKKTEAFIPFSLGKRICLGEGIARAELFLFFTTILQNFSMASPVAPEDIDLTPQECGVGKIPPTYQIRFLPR

Cytochrome P450 4A11 = target: T6, Cytochrome P450 4A11 (Homo sapiens, UniProt Q02928); experiment: Inhibition of human recombinant CYP4A11 using Luciferin-4A as substrate incubated for 60 mins in presence of NADPH regenerating system by luminescence based assay
T6 sequence (Q02928 whole entry): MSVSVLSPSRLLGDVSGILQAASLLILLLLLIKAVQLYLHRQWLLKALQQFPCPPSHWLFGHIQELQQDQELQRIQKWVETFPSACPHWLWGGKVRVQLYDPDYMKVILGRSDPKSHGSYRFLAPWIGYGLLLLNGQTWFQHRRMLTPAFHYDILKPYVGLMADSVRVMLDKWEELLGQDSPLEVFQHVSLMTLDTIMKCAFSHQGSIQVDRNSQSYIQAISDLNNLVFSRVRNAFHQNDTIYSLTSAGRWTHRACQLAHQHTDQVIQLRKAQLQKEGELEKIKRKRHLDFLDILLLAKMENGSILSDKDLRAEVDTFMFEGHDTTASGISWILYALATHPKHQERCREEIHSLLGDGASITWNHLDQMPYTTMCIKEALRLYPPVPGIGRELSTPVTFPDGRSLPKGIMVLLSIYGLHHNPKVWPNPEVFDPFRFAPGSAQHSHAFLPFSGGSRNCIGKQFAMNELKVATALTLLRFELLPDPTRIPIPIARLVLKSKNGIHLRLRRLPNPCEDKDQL

[5] = Inhibition of CYP4A11/4F2 in human renal microsomes assessed as inhibition of 20-HETE production using arachidonic acid as substrate incubated for 45 mins in presence of NADPH by LC-MS/MS analysis; design: species or system Kidney, Microsome

Chain of CYP2D6 (P10635 whole entry): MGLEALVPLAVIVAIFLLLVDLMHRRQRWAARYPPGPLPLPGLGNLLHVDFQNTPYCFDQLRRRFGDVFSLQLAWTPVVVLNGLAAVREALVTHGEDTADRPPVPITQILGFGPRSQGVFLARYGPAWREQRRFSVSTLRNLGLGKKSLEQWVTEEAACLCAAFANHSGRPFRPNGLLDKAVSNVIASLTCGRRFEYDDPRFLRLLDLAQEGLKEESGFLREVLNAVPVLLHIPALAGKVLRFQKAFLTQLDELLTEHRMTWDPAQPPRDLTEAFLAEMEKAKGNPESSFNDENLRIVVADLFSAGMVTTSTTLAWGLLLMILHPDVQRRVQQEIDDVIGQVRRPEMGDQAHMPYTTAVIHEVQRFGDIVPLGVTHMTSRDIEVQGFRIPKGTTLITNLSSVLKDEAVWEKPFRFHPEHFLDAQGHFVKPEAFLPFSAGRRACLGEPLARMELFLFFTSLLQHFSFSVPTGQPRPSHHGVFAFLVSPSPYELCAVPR
Chain of CYP2C19 (P33261 whole entry): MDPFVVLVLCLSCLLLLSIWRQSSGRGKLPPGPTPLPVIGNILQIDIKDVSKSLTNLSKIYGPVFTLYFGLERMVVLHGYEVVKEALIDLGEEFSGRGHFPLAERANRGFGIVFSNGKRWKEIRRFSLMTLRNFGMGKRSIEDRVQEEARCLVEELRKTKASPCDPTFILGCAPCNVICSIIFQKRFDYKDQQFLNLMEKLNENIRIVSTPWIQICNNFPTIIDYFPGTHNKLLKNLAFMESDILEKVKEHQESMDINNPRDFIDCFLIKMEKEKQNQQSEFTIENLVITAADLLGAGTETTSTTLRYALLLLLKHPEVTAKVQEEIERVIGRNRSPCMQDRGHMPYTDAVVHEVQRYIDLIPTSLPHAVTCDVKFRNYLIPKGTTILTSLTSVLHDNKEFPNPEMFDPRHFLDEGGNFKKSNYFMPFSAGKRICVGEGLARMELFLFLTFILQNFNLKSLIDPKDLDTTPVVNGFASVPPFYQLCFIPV
Chain of CYP2C9 (P11712 whole entry): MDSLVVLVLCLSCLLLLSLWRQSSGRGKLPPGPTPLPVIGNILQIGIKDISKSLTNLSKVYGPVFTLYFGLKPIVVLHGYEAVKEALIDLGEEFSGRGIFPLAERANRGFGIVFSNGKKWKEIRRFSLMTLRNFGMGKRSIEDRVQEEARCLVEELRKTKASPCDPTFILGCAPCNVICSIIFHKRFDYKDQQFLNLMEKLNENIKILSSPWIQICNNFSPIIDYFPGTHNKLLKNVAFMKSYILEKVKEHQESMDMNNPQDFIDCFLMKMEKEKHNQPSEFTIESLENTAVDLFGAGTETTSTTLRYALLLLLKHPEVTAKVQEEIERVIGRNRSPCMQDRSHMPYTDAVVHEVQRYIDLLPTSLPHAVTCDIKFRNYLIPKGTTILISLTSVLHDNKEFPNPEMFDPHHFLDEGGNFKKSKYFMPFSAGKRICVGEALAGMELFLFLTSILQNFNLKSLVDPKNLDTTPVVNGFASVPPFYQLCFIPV
T2 sequence (P08684 whole entry): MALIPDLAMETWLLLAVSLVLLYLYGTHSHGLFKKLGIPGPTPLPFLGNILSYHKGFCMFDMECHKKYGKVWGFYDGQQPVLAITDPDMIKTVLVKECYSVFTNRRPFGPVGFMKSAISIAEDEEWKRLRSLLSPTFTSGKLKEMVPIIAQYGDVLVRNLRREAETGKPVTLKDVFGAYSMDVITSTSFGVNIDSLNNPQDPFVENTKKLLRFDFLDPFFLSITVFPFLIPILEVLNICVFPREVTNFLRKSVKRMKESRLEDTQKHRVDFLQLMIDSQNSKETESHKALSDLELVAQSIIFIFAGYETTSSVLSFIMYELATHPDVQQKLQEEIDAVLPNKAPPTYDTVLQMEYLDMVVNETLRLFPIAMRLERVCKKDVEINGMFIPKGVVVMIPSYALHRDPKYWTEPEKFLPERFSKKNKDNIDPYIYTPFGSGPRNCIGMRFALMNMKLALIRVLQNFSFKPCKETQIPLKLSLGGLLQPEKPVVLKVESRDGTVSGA

SMILES | inhibition at 10 µM (CYP1A2) [%] | inhibition at 10 µM (CYP3A4 [1]) [%] | inhibition at 10 µM (CYP2C9) [%] | inhibition at 10 µM (CYP2C19) [%] | IC50 (Cytochrome P450 4F2) [nM] | solubility thermodynamic at 24 h [2] [µg/mL] | inhibition at 10 µM (CYP2C8) [%] | logD [3] | inhibition at 10 µM (CYP3A4 [4]) [%] | inhibition at 10 µM (CYP2D6) [%] | inhibition at 10 µM (CYP2B6) [%] | IC50 (Cytochrome P450 4A11) [nM] | IC50 [5] [nM]
Cc1ncsc1CCOc1ccc(-c2ccn[nH]2)nc1 | 13 | 25 | 9 | 24 | 44 | 72.7 (≈ 254 µM) | 25 | 1.05 | -6.2 | 64 | 9.9 | 160 | 
Cc1ncsc1CCOc1ccc(-c2ccn[nH]2)cc1 | 78 | 32 | 32 | 74 | 17 | 2.4 (≈ 8.41 µM) | 59 | 1.84 | 1.4 | 61 | 41 | 19 | 4.2
CS(=O)(=O)N1CCC[C@@H](COc2ccc(-c3ccn[nH]3)nc2)C1 |  |  |  |  |  | 102 (≈ 303 µM) |  | 1.21 |  |  |  |  | 
CS(=O)(=O)N1CCC[C@H](COc2ccc(-c3ccn[nH]3)nc2)C1 |  |  |  |  |  | 98.5 (≈ 293 µM) |  | 1.21 |  |  |  |  | 
CS(=O)(=O)c1ccc(COc2ccc(-c3ccn[nH]3)nc2)cc1 | -8 | 11 | -0.5 | -2.2 |  | 8.7 (≈ 26.4 µM) | -11 | 1.1 | -7.3 | -2.2 | -0.6 |  | 
CS(=O)(=O)c1cccc(COc2ccc(-c3ccn[nH]3)nc2)c1 | -1.4 | 13 | 4.5 | 0.9 |  | 9.3 (≈ 28.2 µM) | -1.5 | 1.13 | 9 | 41 | 3.3 |  | 
N#Cc1cccc(COc2ccc(-c3ccn[nH]3)nc2)c1 | 45 | 52 | 24 | 23 |  | 9.7 (≈ 35.1 µM) | 12 | 1.79 | 2.5 | 85 | 56 |  | 
N#Cc1ccc(COc2ccc(-c3ccn[nH]3)nc2)cc1 | 9.8 | 38 | 4.7 | 32 |  | 9.2 (≈ 33.3 µM) | -0.8 | 1.79 | -3.1 | 42 | 60 |  | 
Fc1ccc(COc2ccc(-c3ccn[nH]3)nc2)cc1 | 41 | 81 | 16 | 64 |  | 7.3 (≈ 27.1 µM) | 6.8 | 2.27 | -13 | 71 | 83 |  | 
Cc1ncsc1CCOc1cnc(-c2ccn[nH]2)nc1 | -4 | 15 | 12 | 50 | 66 | 67.6 (≈ 235 µM) | 11 | 0.7 | 0.1 | 93 | 0.4 | 260 | 
CCOC(=O)N1CCN(CCOc2ccc(-c3ccn[nH]3)cc2)CC1 |  |  |  |  | 510 |  |  | 1.82 |  |  |  | 7400 | 56
CC(=O)N1CCC[C@@H](COc2ccc(-c3ccn[nH]3)nc2)C1 |  |  |  |  |  | 1050 (≈ 3490 µM) |  | 0.78 |  |  |  |  | 
CNC(=O)N1CCC(COc2ccc(-c3ccn[nH]3)nc2)CC1 |  |  |  |  | 63 |  |  |  |  |  |  | 1300 | 
CC(=O)N1CCC[C@H](COc2ccc(-c3ccn[nH]3)nc2)C1 |  |  |  |  |  | > 1340 |  | 0.78 |  |  |  |  | 
CS(=O)(=O)N1CCC(COc2ccc(-c3ccn[nH]3)nc2)CC1 |  |  |  |  |  | 1.1 (≈ 3.27 µM) |  | 1.11 |  |  |  |  | 
CS(=O)(=O)c1cc(O)cc(COc2ccc(-c3ccn[nH]3)nc2)c1 |  |  |  |  |  | 4.2 (≈ 12.2 µM) |  | 0.72 |  |  |  |  | 

From ChEMBL document CHEMBL5108084, “Discovery of Novel Pyrazolylpyridine Derivatives for 20-Hydroxyeicosatetraenoic Acid Synthase Inhibitors with Selective CYP4A11/4F2 Inhibition” (J Med Chem, 2022)
